According to ChEMBL document CHEMBL2331296, “Synthesis of tetrahydroxybiphenyls and tetrahydroxyterphenyls and their evaluation as amyloid-β aggregation inhibitors” (Bioorg Med Chem Lett, 2013):
Calls of active or inactive are those of the source. The calls are words filed in the database; no cut-off is given here.

Assays:
[1] = target: T1, Amyloid-beta precursor protein (Homo sapiens, UniProt P05067); test: Displacement of congo red from amyloid-beta40 (unknown origin) assessed as reduction of congo red-amyloid beta40 complex level; design: scale not given: the % may be the effect or the level left
T1 sequence (P05067 whole entry): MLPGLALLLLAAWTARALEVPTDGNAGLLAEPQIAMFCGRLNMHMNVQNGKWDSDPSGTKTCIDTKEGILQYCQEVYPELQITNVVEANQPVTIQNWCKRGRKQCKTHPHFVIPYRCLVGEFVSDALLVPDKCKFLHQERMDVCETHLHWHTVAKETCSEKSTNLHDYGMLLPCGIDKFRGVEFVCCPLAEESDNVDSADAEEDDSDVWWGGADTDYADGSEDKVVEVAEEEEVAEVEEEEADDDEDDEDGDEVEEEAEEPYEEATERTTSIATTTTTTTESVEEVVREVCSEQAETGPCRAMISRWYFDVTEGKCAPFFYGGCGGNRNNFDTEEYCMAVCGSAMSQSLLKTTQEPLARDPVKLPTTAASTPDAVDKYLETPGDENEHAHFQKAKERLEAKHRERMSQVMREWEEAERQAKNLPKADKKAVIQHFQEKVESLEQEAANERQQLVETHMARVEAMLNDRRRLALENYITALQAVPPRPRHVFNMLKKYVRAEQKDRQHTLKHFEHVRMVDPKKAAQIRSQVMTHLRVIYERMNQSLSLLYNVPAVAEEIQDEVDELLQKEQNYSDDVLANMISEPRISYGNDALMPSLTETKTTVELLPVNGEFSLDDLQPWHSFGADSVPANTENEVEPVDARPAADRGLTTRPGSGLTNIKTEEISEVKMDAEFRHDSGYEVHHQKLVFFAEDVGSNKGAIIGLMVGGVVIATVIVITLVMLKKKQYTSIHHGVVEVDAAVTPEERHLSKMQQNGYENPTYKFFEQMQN

[2] = target: T1, Amyloid-beta precursor protein; test: Inhibition of amyloid-beta40 (unknown origin) aggregation at 250 uM by congo red spectral-shift assay
[3] = target: T1, Amyloid-beta precursor protein; test: Inhibition of amyloid-beta40 (unknown origin) aggregation by congo red spectral-shift assay

## Oc1ccc(-c2cccc(-c3ccc(O)c(O)c3)c2)cc1O
[1]
  Activity: 2.6%
[2]
  Activity: inactive
[3]
  IC50: 92.5 µM

## Oc1ccc(-c2ccc(O)c(O)c2)cc1O
[1]
  Activity: 2.6%
[3]
  IC50: 25 µM

## Oc1ccc(-c2ccc(-c3ccc(O)c(O)c3)cc2)cc1O
[2]
  Activity: Active

## Oc1ccc(-c2ccccc2-c2ccc(O)c(O)c2)cc1O
[1]
  Activity: 2.6%
[2]
  Activity: inactive
[3]
  IC50: 67.5 µM
